From patent publication US12263156B2, “Use of small molecule inhibitors of the BfrB:Bfd interaction in biofilms” (priority 2020, dated 2025)

Experiments:
[1] = system: P. aeruginosa PAO1 pellicle cells; assay: Total intracellular iron in biofilm-embedded cells; type: cell-based, Pseudomonas aeruginosa; conditions: 24 h; KM-5-25 40 μM, KM-5-66 20 μM
Excerpt: Recombinant BfrB (BfrBrec) was used as a standard for the electrophoretic mobility of BfrB. The lane corresponding to untreated control was loaded with 0.5× the volume of the lanes loaded with lysates from treated pellicles to account for the ˜2-fold larger number of viable cells in the untreated pellicles. Lanes loaded with treated pellicle lysates show greater accumulation of iron in BfrB relative to untreated cells. […] (A), (C) and (D) show the average of results from 3 biological replicates, p<0.001 is denoted by *** relative to untreated.
Pellicle biofilms were grown for 48 hours as described above. The pellicles were transferred onto square (2 cm×2 cm) glass coverslips by gently contacting the pellicle with the coverslip. […] Levels of total intracellular iron were determined as reported previously:^23, 86 the cell pellets were treated with 500 μL of freshly prepared digestion reagent (0.6 N HCl, 2.25% (w/v) KMnO4 in water), thoroughly mixed by vortexing, and then incubated at 65° C. for 3.5 hours. […] The iron concentration was measured from the absorbance of the Fe^2+-Ferene S complex (ε593=34.5 mM^−1 cm^−1),^87 normalized by the viable cell counts and reported as Fe atoms per cell. […]

[2] = system: EYFP-expressing P. aeruginosa PAO1 pellicle biofilms; assay: Pellicle biofilm assay (CLSM imaging, COMSTAT biomass); type: cell-based, Pseudomonas aeruginosa; conditions: 2-day old pellicles, 24 h; KM-5-25 80 μM, KM-5-66 50 μM (about 1.2× the IC50)
Protocol: Pellicle biofilms of EYFP-expressing P. aeruginosa PAO1 or clinical isolates were grown in PI media supplemented with 20 μM Fe. Starter cultures were diluted to OD600=0.001 in 4 mL media, placed in 35×10 mm petri dishes and incubated statically at 30° C. for 48 hours. The pellicles were transferred onto circular (1.5 cm diameter) glass coverslips by gently allowing the surface of a coverslip to contact a pellicle. The pellicle-adhered coverslip was washed in PBS and then deposited on top of 1.5 mL of AB challenge media contained in a well of a 12-well microplate, with the pellicle exposed to the media. […] The coverslip-adhered pellicles were exposed to challenge media at 30° C. for 24 hours, changing the challenge media every 12 hours by transferring the pellicle-adhered coverslip to a new plate containing pre-warmed challenge media.
Excess fluorescent dye was washed with PBS, the coverslip was mounted on a glass slide using 5 μL of SlowFade (Invitrogen, Carlsbad, CA) and the edges sealed with fingernail polish. CLSM image stacks (z-step size of 0.3 μm) were acquired with the aid of a Leica TCS SP8 microscope, as described above. Quantitative analysis was performed by determination of pellicle biomass using COMSTAT^54 and the Otsu method of automatic thresholding.^85
To expand the observations made with flow cell biofilms into a second biofilm model, the susceptibility of biofilms grown at the air-liquid interface (pellicles) was also studied.^56-57 Pellicle biofilms (henceforth pellicles) are an attractive alternative platform to study biofilms because pellicles are amenable to imaging by CLSM and to harvesting, which can be desirable for additional biofilm analysis.^26 To determine the susceptibility of pellicles to antibiotics or inhibitors of the BfrB-Bfd complex, 2-day old pellicles of EYFP-expressing P. aeruginosa cells were cultured in PI media supplemented with 20 μM Fe. The pellicles were transferred onto glass coverslips by allowing the surface of the coverslip to contact a pellicle.

BfrB (apo-BfrB) = BfrB (apo-BfrB) (Pseudomonas aeruginosa (strain ATCC 15692 / DSM 22644 / CIP 104116 / JCM 14847 / LMG 12228 / 1C / PRS 101 / PAO1), UniProt Q9HY79); assay: Fluorescence polarization measurement of dissociation constant (Kd); type: binding; conditions: for Kd: 100 mM potassium phosphate buffer pH 7.6, 1 mM TCEP, 0.5% DMSO, average ± SD
Protocol: Values were obtained in 100 mM potassium phosphate buffer (pH 7.6) containing 1 mM TCEP and 0.5% DMSO. The initial concentrations of KM-5-25 and KM-5-66 were 5 μM. The Kd values are the average and standard deviation from three independent measurements. […] The IC50 values are the average and the standard derivations from three independent experiments.
Prior to testing the effect that the 4-substituted isoindoline-1,3-dione derivatives might exert on P. aeruginosa cells, the strength of their interaction with BfrB was evaluated in vitro with a fluorescence polarization assay developed based on the intrinsic fluorescence of the isoindoline-1,3-dione moiety.

SMILES | total intracellular iron normalized to viable cell counts, relative to untreated biofilms [1] | cells in the pellicle treated (killed), COMSTAT [2] | Kd (BfrB (apo-BfrB)) | fold higher binding affinity for BfrB relative to JAG-5-7 (BfrB (apo-BfrB); relative to JAG-5-7) | fold decrease of Kd relative to compound 16 (BfrB (apo-BfrB); relative to compound 16)
O=C1NC(=O)c2c(NCc3cc(Cl)ccc3O)cccc21 [KM-5-25] | ~2.5 fold | ~85% | 4 ± 0.6 µM | ~2 fold | –
O=C1NC(=O)c2c(NCCCc3cc(O)cc(Cl)c3)cccc21 [KM-5-66] | ~2.5 fold | ~85% | 0.35 ± 0.05 µM | – | ~4 fold
